Values quoted from earlier work in patent US8530500B2, “Stable pharmaceutical omeprazole formulation for oral administration” (Vetegen, LLC, priority 2009, dated 2013).
Values after ≈ are worked out from the molar mass of the structure shown.

How the values were obtained:
[1] = not given; remark: listed apart in the source

Question: Which results are given for COc1ccc2[nH]c([S+]([O-])Cc3ncc(C)c(OC)c3C)nc2c1 (stereo not shown) [omeprazole]?
Answer: solubility in dimethyl sulfoxide (DMSO) (DMSO): > 19 mg/mL; solubility in Polyethylene Glycol 400 (Polyethylene Glycol 400): 20 mg/mL (≈ 57.9 mM); solubility in ethanol (ethanol): 4.5 mg/mL (≈ 13 mM); solubility in water (water): 0.5 mg/mL (≈ 1.45 mM); half-life at neutral pH ([1]; neutral pH): about 14 hours; stability at pH levels above 7 ([1]; pH above 7, protected from light and extremes in temperature and humidity): very stable; stability in water, ethanol or acidic environments ([1]; water, ethanol or acidic environments): not very stable
